{"source": "patent US11466044B2", "about": "(WAYNE STATE UNIVERSITY, priority 2017, dated 2022)", "key": {"[1]": {"test_system": "Klebsiella pneumonia AG215", "assay": "MIC by broth microdilution, Klebsiella pneumonia", "assay_type": "cell-based", "conditions": "Klebsiella pneumoniae; strain AG215 Klebsiella pneumonia; read-out: MIC AG215 K. pneumon"}, "[2]": {"test_system": "M. smegmatis SZ380", "assay": "MIC by broth microdilution, M. smegmatis", "conditions": "Mycolicibacterium smegmatis"}, "[3]": {"test_system": "wild type bacterial ribosomes", "assay": "in-vitro translation assay, bacterial ribosomes", "assay_type": "biochemical", "from_the_text": "(§1) The antiribosomal activity of these compounds was investigated with cell-free translation assays using both wild type bacterial ribosomes and hybrid ribosomes carrying eukaryotic decoding A sites enabling the prediction of selectivity."}, "[4]": {"test_system": "P aeruginosa", "assay": "MIC by broth microdilution, P aeruginosa isolates", "assay_type": "cell-based, Pseudomonas aeruginosa", "conditions": "strain AG220 Pseudomonas aeruginosa ATCC27853; read-out: MIC AG220 P. aerugin"}, "[5]": {"test_system": "E coli wild type", "assay": "MIC by broth microdilution, wild type E coli", "assay_type": "cell-based", "conditions": "Escherichia coli"}, "[6]": {"test_system": "A1555G mutant mitochondrial ribosome (human chimeric)", "assay": "in-vitro translation assay, human chimeric ribosomes, A1555G mutant mitochondrial decoding site", "assay_type": "biochemical", "conditions": "Table 3 (Example 3)", "from_the_text": "as §1"}, "[7]": {"test_system": "E coli carrying specific resistance determinants", "assay": "MIC by broth microdilution, E coli carrying specific resistance determinants", "assay_type": "cell-based", "conditions": "Escherichia coli"}, "[8]": {"test_system": "M. abscessus", "assay": "MIC by broth microdilution, M. abscessus", "assay_type": "cell-based", "conditions": "Mycobacteroides abscessus"}, "[9]": {"test_system": "mitochondrial ribosome (human chimeric)", "assay_type": "biochemical", "from_the_text": "as §1"}, "[10]": {"test_system": "cytosolic ribosome (human chimeric)", "assay_type": "biochemical", "from_the_text": "as §1"}, "[11]": {"test_system": "N. gonorrhoeae", "assay": "Disk diffusion, N. gonorrhoeae", "assay_type": "cell-based", "conditions": "Neisseria gonorrhoeae"}, "[12]": {"test_system": "MRSA", "assay": "MIC by broth microdilution, MRSA isolates", "assay_type": "cell-based", "conditions": "Staphylococcus aureus, MRSA, Table 1 (Example 3)"}, "[13]": {"test_system": "Acinetobacter baumannii pittii AG225", "assay": "MIC by broth microdilution, Acinetobacter baumannii", "assay_type": "cell-based", "conditions": "strain AG225 Acinetobacter baumannii pittii"}, "[14]": {"conditions": "Casinelli et al., J Antibiotics 1978, 31, 378 and 382; cited from earlier work"}, "[15]": {"test_system": "Enterobacter cloacae AG290", "assay": "MIC by broth microdilution, Enterobacter cloacae", "assay_type": "cell-based", "conditions": "strain AG290 Enterobacter cloacae; read-out: MIC AG290 E. cloacae"}}, "note": "Read-outs that look alike come from different tables or passages of the source."}
{"molecule": "CCNC1C(OC2C(N)CC(N)C(O)C2OC2OC(CO)C(OC3OC(CN)C(O)C(O)C3N)C2O)OC(CO)C(O)C1O", "note": "(stereo not drawn) [Compound 127]", "values": [{"measurement": "MIC", "setting": "[1]", "value": 2, "unit": "µg/mL"}, {"measurement": "MIC", "setting": "[2]; SZ380, read-out: MIC M. smegmatis SZ380 WT, SZ380 WT, Table 5 (Example 3)", "value": 4, "unit": "µg/mL"}, {"measurement": "MIC", "setting": "[2]; SZ380, read-out: MIC SZ380 M. smegmatis, strain SZ380 Mycobacterium smegmatis", "value": 4, "unit": "µg/mL"}, {"measurement": "IC50", "setting": "[3]; bacterial ribosome, Table 4 (Example 3), read-out: IC50 Bac", "value": 0.03, "unit": "µM"}, {"measurement": "selectivity for the bacterial ribosome over mitochondrial (wild type, A1555G mutant) and cytosolic ribosomes, in words", "setting": "[3]; compared with the parent compound", "value": "increased selectivity for the bacterial ribosome"}, {"measurement": "MIC", "setting": "[4]", "value": "> 64", "unit": "µg/mL"}, {"measurement": "MIC", "setting": "[5]; ATCC25922, strain AG212 E. coli (ATCC25922), read-out: MIC AG212 E. coli", "value": 4, "unit": "µg/mL"}, {"measurement": "MIC", "setting": "[5]; WT, Table 4 (Example 3), read-out: MIC E. coli WT", "value": 2, "unit": "µg/mL"}, {"measurement": "MIC", "setting": "[5]; WT, Table 5 (Example 3), read-out: MIC E. coli WT", "value": 2, "unit": "µg/mL"}, {"measurement": "MIC", "setting": "[5]; clinical isolate AG001, Table 1 (Example 3), read-out: MIC E coli AG001", "value": 16, "unit": "µg/mL"}, {"measurement": "MIC", "setting": "[5]; clinical isolate AG003, Table 1 (Example 3), read-out: MIC E coli AG003", "value": 16, "unit": "µg/mL"}, {"measurement": "MIC", "setting": "[5]; clinical isolate AG055, Table 1 (Example 3), read-out: MIC E coli AG055", "value": 16, "unit": "µg/mL"}, {"measurement": "Selectivity for Binding to the Bacterial Ribosome over the Mutant Mitochondrial Ribosome", "setting": "[6]", "value": 1804}, {"measurement": "MIC", "setting": "[7]; read-out: MIC E. coli AAC(2′) AG106", "value": 2, "unit": "µg/mL"}, {"measurement": "MIC", "setting": "[7]; read-out: MIC E. coli AAC(2′) pH434", "value": 4, "unit": "µg/mL"}, {"measurement": "MIC", "setting": "[7]; read-out: MIC E. coli pGB2armA armA", "value": "4 to 8", "unit": "µg/mL"}, {"measurement": "MIC", "setting": "[7]; read-out: MIC E. coli pH434 AAC(2′)-Ib", "value": 4, "unit": "µg/mL"}, {"measurement": "MIC", "setting": "[8]; ATCC19977, ATCC 19977 WT, Table 5 (Example 3), read-out: MIC M. abscessus ATCC 19977 WT", "value": 32, "unit": "µg/mL"}, {"measurement": "MIC", "setting": "[8]; read-out: MIC M. abscessus engineered Δeis2", "value": 0.5, "unit": "µg/mL"}, {"measurement": "MIC", "setting": "[8]; ATCC, Table 4 (Example 3), read-out: MIC M. abscessus ATCC", "value": 32, "unit": "µg/mL"}, {"measurement": "MIC", "setting": "[8]; Clin. Isol., Table 4 (Example 3), read-out: MIC M. abscessus Clin. Isol.", "value": 64, "unit": "µg/mL"}, {"measurement": "Selectivity for Binding to the Bacterial Ribosome over the Mitochondrial Ribosome", "setting": "[9]; Table 3 (Example 3)", "value": 4715}, {"measurement": "IC50", "setting": "[9]; mitochondrial, Table 4 (Example 3), read-out: IC50 Mit", "value": 141, "unit": "µM"}, {"measurement": "Selectivity for Binding to the Bacterial Ribosome over the Cytosolic Ribosome", "setting": "[10]; Table 3 (Example 3)", "value": 918}, {"measurement": "IC50", "setting": "[10]; cytosolic, Table 4 (Example 3), read-out: IC50 Cyt", "value": 28, "unit": "µM"}, {"measurement": "zone of inhibition at 25 nmol/disc", "setting": "[11]", "value": 9, "unit": "mm"}, {"measurement": "MIC", "setting": "[12]; clinical isolate AG038, read-out: MIC MRSA AG038", "value": 8, "unit": "µg/mL"}, {"measurement": "MIC", "setting": "[12]; clinical isolate AG039, read-out: MIC MRSA AG039", "value": "> 128", "unit": "µg/mL"}, {"measurement": "MIC", "setting": "[12]; clinical isolate AG042, read-out: MIC MRSA AG042", "value": "> 128", "unit": "µg/mL"}, {"measurement": "MIC", "setting": "[12]; clinical isolate AG044, read-out: MIC MRSA AG044", "value": "4 to 8", "unit": "µg/mL"}, {"measurement": "MIC", "setting": "[13]", "value": 4, "unit": "µg/mL"}, {"measurement": "antibiotic potency compared with the parent compounds, in words", "setting": "[14]", "value": "comparable antibiotic potency to the parent compounds"}, {"measurement": "MIC", "setting": "[15]", "value": "2 to 4", "unit": "µg/mL"}]}
